Data from US20230255970A1, “COMPOSITIONS AND METHODS FOR TREATING PROLIFERATIVE DISEASES” (The Broad Institute, Inc., priority 2020, published 2023).

Legend:
Format in all cases: cell-based, human
[1] = test system: YAP1 overexpression in U2OS cells; assay: Cell Painting morphological profile matching to YAP1/TAZ overexpression signature; conditions: Pearson correlation of Cell Painting signatures, U2OS cells
Text: (§1) Of these, analysis of the 220 constructs that were most closely representative of the annotated full-length transcripts was prioritized. […] Not all genes are likely to impact cellular morphology given the limitation of the experiment; using a single cell line at a single time point under a single set of conditions and stained with six fluorescent labels.
FIG. 2 provides an example characterization of matching the morphological signature of a gene query to the signature(s) of compounds in a library. Connections which show both positive and negative large correlations are considered as matches.
(§2) This standardization was done plate wise, based on the mean and standard deviation of the controls at profile level for the compound dataset. […] The signatures were then obtained by averaging the replicate profiles feature-wise. Pearson correlation was used on the aligned signatures of a gene and compound to score their connection.

[2] = test system: TRAF2 overexpression in U2OS cells; assay: Cell Painting morphological profile matching to TRAF2 overexpression; conditions: Pearson correlation of Cell Painting signatures, U2OS cells
Text: as §1, §2

U2OS cells = assay: Cell count in U2OS Cell Painting images; conditions: U2OS Cell Painting
Text: as §1, §2

SMILES | Corr. to YAP1 cluster [1] | Corr. to TRAF2 [2] | Avg. Cell Count z-score (U2OS cells)
N#Cc1nn(-c2c(Cl)cc(C(F)(F)F)cc2Cl)c(N)c1[S+]([O-])C(F)(F)F (stereo not drawn) [BRD-A50675702, 5-amino-1-[2,6-dichloro-4-(trifluoromethyl)phenyl]-4-(trifluoromethane)sulfinyl-1H-pyrazole-3-carbonitrile] | 0.5102 | −0.4752 | −0.1188
O=C(C[C@@H]1C[C@H]2c3cc(NC(=O)C4CCC4)ccc3O[C@H]2[C@H](CO)O1)NCc1ccccn1 [BRD-K28043081, N-[(1S,3S,4aS,9aR)-1-(hydroxymethyl)-3-[2-oxo-2-(pyridin-2-ylmethylamino)ethyl]-3,4,4a,9a-tetrahydro-1H-pyrano[3,4-b][1]benzofuran-6-yl]cyclobutanecarboxamide] | 0.527 | −0.406 | −0.5533
O=C(C[C@H]1C=C[C@@H](NC(=O)Nc2cc(F)ccc2F)[C@H](CO)O1)NCCCN1CCOCC1 [BRD-K40143134, 2-[(2R,3R,6S)-3-[[(2,5-difluoroanilino)-oxomethyl]amino]-2-(hydroxymethyl)-3,6-dihydro-2H-pyran-6-yl]-N-[3-(4-morpholinyl)propyl]acetamide] | 0.5009 | −0.3428 | −0.1148
CNC[C@@H]1Oc2c(NS(=O)(=O)c3ccc(F)cc3)cccc2C(=O)N([C@H](C)CO)C[C@H]1C [BRD-K00135177, 4-fluoro-N-[(2R,3R)-5-[(2R)-1-hydroxypropan-2-yl]-3-methyl-2-(methylaminomethyl)-6-oxo-3,4-dihydro-2H-1,5-benzoxazocin-10-yl]benzenesulfonamide] | 0.5004 | −0.3649 | 0.4009
COC(=O)C[C@H]1C[C@H]2c3cc(NS(=O)(=O)c4cccc(OC)c4)ccc3O[C@H]2[C@@H](CO)O1 [BRD-K68530167, 2-[(1R,3R,4aS,9aR)-1-(hydroxymethyl)-6-[(3-methoxyphenyl)sulfonylamino]-3,4,4a,9a-tetrahydro-1H-pyrano[3,4-b]benzofuran-3-yl]acetic acid methyl ester] | 0.494 | −0.4619 | −0.1411
O=C(C[C@H]1CC[C@H](NC(=O)CCN2CCCCC2)[C@@H](CO)O1)Nc1nccs1 [BRD-K11266478, N-[(2S,3S,6R)-2-(hydroxymethyl)-6-[2-oxo-2-(1,3-thiazol-2-ylamino)ethyl]oxan-3-yl]-3-piperidin-1-ylpropanamide] | 0.4988 | −0.4398 | 0.4851
CCc1nc(N)nc(N)c1-c1ccc(Cl)cc1 [BRD-K88429204, 5-(4-chlorophenyl)-6-ethylpyrimidine-2,4-diamine] | 0.4503 | −0.3496 | −0.2165
O=C(N[C@H]1CC[C@@H](CCNS(=O)(=O)c2ccc(F)cc2)O[C@H]1CO)C1CCOCC1 [BRD-K48052543, N-[(2R,3S,6S)-6-[2-[(4-fluorophenyl)sulfonylamino]ethyl]-2-(hydroxymethyl)oxan-3-yl]oxane-4-carboxamide] | 0.5099 | −0.4132 | 0.09801
O=c1[nH]ccc2c(S(=O)(=O)N3CCCNCC3)cccc12 [BRD-K77793136, 5-(1,4-diazepan-1-ylsulfonyl)-2H-isoquinolin-1-one] | 0.4458 | −0.4667 | −1.055
C[C@@H]1CN([C@H](C)CO)C(=O)CCCn2cc(nn2)CO[C@@H]1CN(C)S(=O)(=O)c1ccc(Oc2ccccc2)cc1 [BRD-K96698997, N-[[(8R,9S)-6-[(2R)-1-hydroxypropan-2-yl]-8-methyl-5-oxo-10-oxa-1,6,13,14-tetrazabicyclo[10.2.1]pentadeca-12(15),13-dien-9-yl]methyl]-N-methyl-4-phenoxybenzenesulfonamide] | −0.4518 | 0.4834 | −1.099
C[C@H]1CN([C@@H](C)CO)C(=O)CCCn2nncc2CO[C@H]1CN(C)C(=O)Nc1cccc(Oc2ccccn2)c1 [BRD-K19969618, 1-[[(8S,9R)-6-[(2S)-1-hydroxypropan-2-yl]-8-methyl-5-oxo-10-oxa-1,6,14,15-tetrazabicyclo[10.3.0]pentadeca-12,14-dien-9-yl]methyl]-1-methyl-3-(3-pyridin-2-yloxyphenyl)urea] | 0.5483 | −0.4667 | 0.7797
O=C(Nc1ccncc1)Nc1c(Cl)cc(Cl)cc1Cl [BRD-K46678324, 1-pyridin-4-yl-3-(2,4,6-trichlorophenyl)urea] | 0.4284 | −0.3397 | −0.7252
O=C(Nc1ccc2c(c1)[C@H]1C[C@@H](CC(=O)N3CCCCC3)O[C@@H](CO)[C@H]1O2)C1CCOCC1 [BRD-K62768599, N-[(1S,3S,4aR,9aS)-1-(hydroxymethyl)-3-[2-oxo-2-(1-piperidinyl)ethyl]-3,4,4a,9a-tetrahydro-1H-pyrano[3,4-b]benzofuran-6-yl]-4-oxanecarboxamide] | 0.4883 | −0.5272 | −0.7392
C[C@H](CO)N1C[C@H](C)[C@H](CN(C)C)Oc2cc(C#Cc3ccccn3)ccc2S1(=O)=O [BRD-K13719685, (4S,5R)-5-((dimethylamino)methyl)-2-((R)-1-hydroxypropan-2-yl)-4-methyl-8-(pyridin-2-ylethynyl)-2,3,4,5-tetrahydrobenzo[b][1,4,5]oxathiazocine 1,1-dioxide] | −0.4426 | 0.3591 | 2.104
CO[C@H]1CN(C)C(=O)c2cc(NC(=O)C3CCCCC3)ccc2OC[C@@H](C)N(Cc2nccs2)C[C@@H]1C [BRD-K22874335, N-[(4R,7S,8R)-8-methoxy-4,7,10-trimethyl-11-oxo-5-(1,3-thiazol-2-ylmethyl)-2-oxa-5,10-diazabicyclo[10.4.0]hexadeca-1(12),13,15-trien-14-yl]cyclohexanecarboxamide] | 0.4904 | −0.362 | −1.704
CCCC(=O)Nc1ccc2c(c1)C(=O)N(C)C[C@H](OC)[C@H](C)CN(Cc1ccccc1)[C@@H](C)CO2 [BRD-K22754756, N-[(4S,7R,8R)-8-methoxy-4,7,10-trimethyl-11-oxo-5-(phenylmethyl)-2-oxa-5,10-diazabicyclo[10.4.0]hexadeca-1(12),13,15-trien-14-yl]butanamide] | 0.4966 | −0.297 | −1.409
O=C(C[C@H]1CC[C@@H]2[C@H](COC[C@@H](O)CN2Cc2ccc3c(c2)OCO3)O1)N1CCCCC1 [BRD-K41723088, 2-[(3S,6aR,8R,10aR)-1-(1,3-benzodioxol-5-ylmethyl)-3-hydroxy-3,4,6,6a,8,9,10,10a-octahydro-2H-pyrano[2,3-c][1,5]oxazocin-8-yl]-1-piperidin-1-ylethanone] | 0.4916 | −0.4389 | −0.07095
O=C(NCC1CC1)[C@@H]1N[C@@H]2c3ccc(C4=CCCCC4)c(=O)n3C[C@@H]2[C@H]1CO [BRD-K37451830, (2R,3R,3aS,9bS)-7-(1-cyclohexenyl)-N-(cyclopropylmethyl)-3-(hydroxymethyl)-6-oxo-1,2,3,3a,4,9b-hexahydropyrrolo[2,3-a]indolizine-2-carboxamide] | 0.4802 | −0.4167 | −0.0043
Clc1nc(NCc2ccccc2)c2ccccc2n1 [BRD-K11758216, N-benzyl-2-chloroquinazolin-4-amine] | 0.5078 | −0.4406 | −1.202
CN1c2cc3c(cc2N=C(c2ccc(C(=O)O)cc2)c2ccccc21)C(C)(C)CCC3(C)C [BRD-K06593056, 4-(5,7,7,10,10-pentamethyl-8,9-dihydronaphtho[2,3-b][1,4]benzodiazepin-13-yl)benzoic acid] | 0.4357 | −0.4512 | −0.7909
Cc1ccc(S(=O)(=O)NC(=O)NN2CC3CCCC3C2)cc1 (stereo not drawn) [BRD-A61154809, 1-(3,3a,4,5,6,6a-hexahydro-1H-cyclopenta[c]pyrrol-2-yl)-3-(4-methylphenyl)sulfonylurea] | 0.4401 | −0.3313 | 0.8203
COc1cccc(S(=O)(=O)N2C[C@H](O)COC[C@@H]3O[C@H](CC(=O)N4CCN(c5ccccc5)CC4)CC[C@H]32)c1 [BRD-K70003473, 2-[(3S,6aR,8S,10aR)-3-hydroxy-1-(3-methoxyphenyl)sulfonyl-3,4,6,6a,8,9,10,10a-octahydro-2H-pyrano[2,3-c][1,5]oxazocin-8-yl]-1-(4-phenyl-1-piperazinyl)ethanone] | −0.4195 | 0.3099 | 0.5728
COc1ccc(Cc2nccc3cc(OC)c(OC)cc23)cc1OC [BRD-K15567136, 1-[(3,4-dimethoxyphenyl)methyl]-6,7-dimethoxyisoquinoline] | 0.4464 | −0.4936 | −0.6568
